Data on 8 molecules can be found in patent publication US9845302B2, “Anticancer compounds and process for the preparation thereof” (Council of Scientific and Industrial Research, priority 2013, dated 2017).

In one test the test system is HL60-HUVEC cell adhesion. As to the kind of experiment: HL60-HUVEC cell adhesion inhibition, 8 point dose dependent assay (TNF-α stimulated, Calcein AM fluorometric). Type of test: cell-based. As to conditions: Homo sapiens; HUVEC dosed 2 hours with compound, 100 ng/mL TNF-α 4 hours, HL60 co-culture 30 mins. The procedure:
Determination of Cell Adhesion Inhibition
An 8 point dose dependent assay was carried out to assess the IC50's of the test compounds.
10,000 HUVEC cells/well (passage number. 8) was seeded into a 96 well black clear bottom plate and cells were cultured for 4 days at 37° C. After the cell culture, HUVEC's were dosed with test compound and reference compound (peribysin E) at a top concentration of 100 μM (1:3 step down dilution-8 concentrations) and cells were cultured for 2 hours at 37° C. HUVEC's were treated with/without 100 ng/mL of TNF-α further cultured for 4 hours at 37° C. 100,000 HL60 cells/well (passage number. 16) was loaded with Calcein AM dye and co-cultured with HUVECs, and cells were cultured for 30 mins at 37° C. HL60-HUVEC cell adhesion was detected by a fluorometric method using a BMG Polarstar. (IC50=inhibition concentration at 50%). HL60-HUVEC Cell Adhesion-IC50 Assessment of Compound

Test [1] has as its system adhesion of leukemia HL-60 cells to human-umbilical-vein endothelial cells (HUVEC). The settings on record: HL-60 cells to HUVEC; background statement; cited from earlier work.

One may read the IC50 as the point on the concentration scale where inhibition reaches its midpoint. As to `C=C1CO[C@@H](OC)[C@]12C[C@@H]1C=CC[C@@H](C)[C@]1(C)[C@H]2O` (racemic) [Compound 9, (2R,2′R,3′R,3a′S,4′R,7a′R)-2-methoxy-3a′,4′-dimethyl-4-methylene 1′,3′,3a′,4,4′,5,5′,7a′-octahydro-2H-spiro[furan-3,2′-inden]-3′-ol], the IC50 in the test on HL60-HUVEC cell adhesion was 18.7 µM.
On to `C=C1CO[C@@H](OC)[C@]12C[C@@H]1[C@@H]3O[C@@H]3C[C@@H](C)[C@]1(C)[C@H]2O` (racemic) [Compound 10, (1a′R,2R,3R,3′R,3a′S,4′R,6a′S,6b′S)-2-methoxy-3′,3a′-dimethyl-4-methylenedecahydro-2H-spiro[furan-3,5′-indeno[4,5-b]oxiren]-4′-ol], for which the IC50 with HL60-HUVEC cell adhesion is 15.8 µM.
For the molecule `C=C1CO[C@@H](OC)[C@]12C[C@@H]1C[C@H](O)C[C@@H](C)[C@]1(C)[C@H]2O` (racemic) [Compound 11a, (1′R,2R,2′R,3a′R,5′R,7′R,7a′S)-2-methoxy-7′,7a′-dimethyl-4-methylene decahydro-2H-spiro[furan-3,2′-indene]-1′,5′-diol], in the test with HL60-HUVEC cell adhesion, the half-inhibitory concentration (IC50) was 10.4 µM.
The same measure, in the same setting: the figure for `C=C1CO[C@@H](OC)[C@]12C[C@@H]1[C@H](O)CC[C@@H](C)[C@]1(C)[C@H]2O` (racemic) [Compound 11b, (1′R,2R,2′R,3a′S,4′R,7′R,7a′S)-2-methoxy-7′,7a′-dimethyl-4-methylenedecahydro-2H-spiro[furan-3,2′-indene]-1′,4′-diol] is 4.28 µM; for `C=C1CO[C@@H](OC)[C@]12C[C@@H]1[C@@H](O)CC[C@@H](C)[C@]1(C)[C@H]2O` (racemic) [Compound 11c, (1′R,2R,2′R,3a′S,4′S,7′R,7a′S)-2-methoxy-7′,7a′-dimethyl-4-methylenedecahydro-2H-spiro[furan-3,2′-indene]-1′,4′-diol] it is 13.8 µM.
Take `C=C1CO[C@@H](OC)[C@]12C[C@@H]1CCC[C@@H](C)[C@]1(C)[C@H]2O` (racemic) [Compound 20, (1′R,2R,2′R,3a′S,7′R,7a′S)-2-methoxy-7′,7a′-dimethyl-4-methylenedecahydro-2H-spiro[furan-3,2′-inden]-1′-ol]: the IC50 in the test with HL60-HUVEC cell adhesion is 11 µM.
In the case of `C=C1CO[C@@H](OC)[C@]12C[C@@H]1C[C@@H](O)C[C@@H](C)[C@]1(C)[C@H]2O` (racemic) [Peribysin E, (1′R,2R,2′R,3a′R,5′S,7′R,7a′S)-2-methoxy-7′,7a′-dimethyl-4-methylenedecahydro-2H-spiro[furan-3,2′-indene]-1′,5′-diol, reference compound], the “cell adhesion inhibitory activity” value in test [1] is reported as “inhibit adhesion of leukemia HL-60 cells to human-umbilical-vein endothelial cells (HUVEC)”. In the test on HL60-HUVEC cell adhesion, the IC50 was 6.9 to 12.2 µM.
As for `C=C1CO[C@@H](OC)[C@]12C[C@@H]1C[C@@H](O)C[C@@H](C)[C@]1(C)[C@H]2O` [(−)-peribysin E], the “cell adhesion inhibitory activity” value in test [1] is “more potent activity than the gold standard herbimycin”.
